Source: patent US11352350B2, “IRAK degraders and uses thereof” (Kymera Therapeutics, Inc., priority 2018, dated 2022)

What was measured:
IRAK4 [1] = molecular target: T1, IRAK4 (Homo sapiens (Human), UniProt Q9NWZ3); assay: IRAK4 MSD degradation in OCI-LY10; format: cell-based; details: MSD
Method in brief: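 Remaining IRAK4 quantified by electrochemiluminescent MSD sandwich assay with two anti-IRAK4 antibodies. Compounds were dosed as 8 concentrations in 1:3 steps from a 1 to 10 μM final top on OCI-LY10 cells, incubated 4 to 24 h at 37° C. under 5% CO2. DC50 fitted with a three-parameter logistic curve.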

IRAK4 [2] = molecular target: T1, IRAK4; assay: IRAK4 degradation in human whole blood lymphocyte - flow cytometry; format: cell-based; details: read-out: IRAK4 degradation in whole blood lymphocyte-Flow cytometry: Average external Abs IC50
Method: (§1) Human whole blood IRAK4 degradation flow assay. Whole blood was collected in heparinized tubes and plated on the same day as draw (day 0). Whole blood was aliquoted into deep well plates. Compound plates were prepared and a 10 point, 5-fold dilution was performed with a final DMSO concentration of 0.1%. Compound was added to whole blood deep well plate, sealed and incubated at 37° C., 5% CO2 for 20 hours (for 4 hour treatment, compounds were prepared and added the following day). Following the treatment incubation period (day 1), BD lyse fix (BD #558049) was added to the whole blood plate, placed on plate shaker for 30 seconds and incubated for 10 mins at room temperature. Whole blood was then spun down and washed two times with PBS/0.5% BSA, aspirated to pellet and placed into −80° C. freezer until further processing for flow. On the flow run day, whole blood plates were thawed and samples were transferred to PCR plates. The pre-perm staining cocktail (CD3 Ax488/CD8 BUV805/CD14 BUV395/CD16/56 BV711/CD19 BV785) was added to samples and incubated for 30 minutes at room temperature. Samples were washed two times and permeabilized with Methanol for 10 minutes at 4° C. Samples were washed two times and the post-perm staining cocktail (CD4 PE/IRAK4 Ax647 BD #560315) was added and incubated for 30 minutes at room temperature. Samples were washed two times with PBS/BSA and run on a BD LSRFortessa. Mononuclear cells are gated by SSCH/FSCH and single cells. Monocytes are then gated through CD14 positive gate and lymphocytes are gated through CD14 negative gate. To determine absolute DC50 and max degradation values, MFI values were normalized to DMSO max and 20 hour 10 μM min control. Twenty hour dose curves were calculated using a 4 parameter logistic regression curve fit, no constraints (Top doses were removed if hook effects were observed and the bottom was constrained to 0).

OCI-LY10 = assay: CTG Cell Viability Assay - OCI-LY10; format: cell-based, human; details: Homo sapiens, OCI-Ly10, 96 h, OCI-LY10, 4 days; read-out: CTG Cell Viability Assay - OCI-LY10: Average external-IC50
Method in brief: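 Viability read by CellTiter-Glo luminescence after 4 days at 37° C under 5% CO2 with compound (top 10 μM final, 1:3 steps, 9 doses, DMSO 0.2%). Three-parameter logistic fit gave IC50.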

TNFα [3] = assay: Human whole blood LPS TNFα assay; format: cell-based; details: 20 h pretreatment, LPS 5 h, read-out: IRAK4 human whole blood LPS TNFa inhibition: Average external-IC50
Method: Human Whole blood LPS TNFα assay. Whole blood was collected fresh and plated same day into 96 well plates at 180 μL per well. Compound plates were prepared in DMSO as 8-point dose curves in duplicate, starting dose 2 μM, 5-fold. Compounds are added 20 μL into blood for final 200 μL per well. Compound and cells were incubated at 37° C., 5% CO2 for 20 hours. After twenty hours of pretreatment with the compounds, LPS (01 1 1:B4) (Sigma #L2637) was added at 100 ng/ml final concentration and blood incubated an additional five hours at 37° C., 5% CO2. Following assay completion, whole blood plates were spun down at 2000 rpm for 15 minutes at 4° C. 50 μL of plasma was carefully removed and placed into a new 96 well Costar (#3879) plate and stored at −80° C. until further analysis. Meso scale Discovery (MSD) human V-plex assays were used to measure cytokine levels. On day of cytokine analysis, plasma samples were thawed, diluted with V-plex diluent #2, and directly to MSD plates. Assay was further completed per standard manufacturer's protocol. Cytokine data was normalized to LPS stimulated and unstimulated controls. Prism Graphpad was used to generate IC50 using 4 parameter logistic regression curve, free-fit.

IRAK4 [4] = molecular target: T1, IRAK4; assay: IRAK4 degradation in human whole blood monocyte - flow cytometry; format: cell-based; details: read-out: IRAK4 degradation in whole blood monocyte-Flow cytometry: Average external Abs IC50
Method: as §1

TNFα [5] = assay: Human PBMC LPS TNFα assay; format: cell-based; details: hPBMC, LPS stimulation, read-out: IRAK4 hPBMC LPS TNF-α inhibition: Average external-IC50
Method: Human PBMC LPS TNFα assay. Frozen PBMCs were thawed into RPMI with 10% FBS/1% penicillin/streptomycin and same day plated into 96 well plates at 200,000 PBMC/[…] media per well. Compound plates were prepared in DMSO with D300 cassette as 8-point dose curves in duplicate, starting dose 2 μM, 5-fold. Compounds are added 200 nL into cells for final 200 μL per well. Compound and cells were incubated at 37° C., 5% CO2 for 20 hours. After twenty hours of pretreatment with the compounds, LPS (01 1 1:B4) (Sigma #L2637) was added at 100 ng/ml final concentration and PBMCs incubated an additional five hours at 37° C., 5% CO2. Following assay completion, PBMC plates were spun down at 2000 rpm for 10 minutes. 100 uL of supernatant was carefully removed and placed into a new 96 well Costar (#3879) plate and stored at −80° C. until further analysis. Meso scale Discovery (MSD) human V-plex assays were used to measure cytokine levels. On day of cytokine analysis, supernatant samples were thawed, diluted with V-plex diluent #2, and directly to MSD plates. Assay was further completed per standard manufacturer's protocol. Cytokine data was normalized to LPS stimulated and unstimulated controls. Prism Graphpad was used to generate IC50 using 4 parameter logistic regression curve, free-fit.

[6] = OCI-LY10, 4 hrs, read-out: IRAK4 MSD degradation in OCI-LY10 at 4 hrs: Average external-Abs DC50
[7] = OCI-LY10, 24 hrs, read-out: IRAK4 MSD degradation in OCI-LY10 at 24 hrs: Average external-Abs DC50

T1 sequence (Q9NWZ3 whole entry): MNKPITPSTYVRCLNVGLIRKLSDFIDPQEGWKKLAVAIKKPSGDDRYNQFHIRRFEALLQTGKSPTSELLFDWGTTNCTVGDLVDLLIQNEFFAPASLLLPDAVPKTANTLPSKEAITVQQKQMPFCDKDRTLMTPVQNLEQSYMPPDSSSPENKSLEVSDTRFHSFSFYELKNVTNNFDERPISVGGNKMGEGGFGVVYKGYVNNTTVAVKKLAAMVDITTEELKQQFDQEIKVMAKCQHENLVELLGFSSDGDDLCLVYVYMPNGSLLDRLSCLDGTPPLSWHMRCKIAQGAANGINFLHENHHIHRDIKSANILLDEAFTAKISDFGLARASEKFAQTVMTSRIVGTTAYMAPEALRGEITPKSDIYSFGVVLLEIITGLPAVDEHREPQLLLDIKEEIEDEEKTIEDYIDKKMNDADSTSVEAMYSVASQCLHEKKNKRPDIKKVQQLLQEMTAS

SMILES	DC50 (IRAK4 [1]; [6]) [nM]	DC50 (IRAK4 [2]) [nM]	IC50 (OCI-LY10) [nM]	IC50 (TNFα [3]) [nM]	IC50 (IRAK4 [4]) [nM]	IC50 (TNFα [5]) [nM]	DC50 (IRAK4 [1]; [7]) [nM]	DC50 (IRAK4 [4]) [nM]
CN(C[C@@H]1CN(CCCc2ccc3c(c2)n(C)c(=O)n3C2CCC(=O)NC2=O)CCO1)C[C@H]1CC[C@H](n2cc(NC(=O)c3coc(-c4ccnc(NCC5CC5)c4)n3)c(C(F)F)n2)CC1 (some centres unmarked) [I-36]	10 to 100	< 50	500 to 1000	100 to 500	< 50	100 to 500	–	–
CN(CCCOCCCc1ccc2c(c1)n(C)c(=O)n2C1CCC(=O)NC1=O)C[C@H]1CC[C@H](n2cc(NC(=O)c3coc(-c4ccnc(NCC5CC5)c4)n3)c(C(F)F)n2)CC1 (some centres unmarked) [I-62]	< 10	< 50	50 to 100	> 1000	< 50	100 to 500	–	–
CN(CCCOCCCc1ccc2c(c1)c1cccnc1n2C1CCC(=O)NC1=O)C[C@H]1CC[C@H](n2cc(NC(=O)c3coc(-c4ccnc(NCC5CC5)c4)n3)c(C(F)F)n2)CC1 (some centres unmarked) [I-46]	10 to 100	100 to 500	500 to 1000	> 1000	–	100 to 500	10 to 100	500 to 1000
Cn1c(=O)n(C2CCC(=O)NC2=O)c2cccc(CCCOCC3CN(C[C@H]4CC[C@H](n5cc(NC(=O)c6coc(-c7ccnc(NCC8CC8)c7)n6)c(C(F)F)n5)CC4)C3)c21 (some centres unmarked) [I-65]	< 10	50 to 100	< 50	> 1000	< 50	< 50	–	–
Cn1c(=O)n(C2CCC(=O)NC2=O)c2cccc(CCCOCCN3CCN(C[C@H]4CC[C@H](n5cc(NC(=O)c6coc(-c7ccnc(NCC8CC8)c7)n6)c(C(F)F)n5)CC4)CC3)c21 (some centres unmarked) [I-58]	< 10	50 to 100	50 to 100	> 1000	< 50	100 to 500	–	–
Cn1c(=O)n(C2CCC(=O)NC2=O)c2ccc(CN3CCN(CCO[C@H]4C[C@H](N(C)C(=O)[C@H]5CC[C@H](n6cc(NC(=O)c7coc(-c8ccnc(NCC9CC9)c8)n7)c(C(F)F)n6)CC5)C4)CC3)cc21 (some centres unmarked) [I-45]	< 10	50 to 100	< 50	500 to 1000	< 50	< 50	–	–
CN(CCOCCOCCCc1cccc2c1n(C)c(=O)n2C1CCC(=O)NC1=O)C(=O)[C@H]1CC[C@H](n2cc(NC(=O)c3coc(-c4ccnc(NCC5CC5)c4)n3)c(C(F)F)n2)CC1 (some centres unmarked) [I-32]	< 10	50 to 100	100 to 500	> 1000	< 50	50 to 100	–	–
Cn1c(=O)n(C2CCC(=O)NC2=O)c2cccc(CCCOC3CCN(C[C@H]4CC[C@H](n5cc(NC(=O)c6coc(-c7ccnc(NCC8CC8)c7)n6)c(C(F)F)n5)CC4)CC3)c21 (some centres unmarked) [I-48]	< 10	< 50	< 50	100 to 500	< 50	100 to 500	–	–
O=C1CCC(n2c3ccc(CCCOCCOCCNCC4CCC(n5cc(NC(=O)c6coc(-c7ccnc(NCC8CC8)c7)n6)c(C(F)F)n5)CC4)cc3c3cccnc32)C(=O)N1 (centres unmarked) [I-47]	10 to 100	100 to 500	100 to 500	> 1000	–	100 to 500	10 to 100	500 to 1000
CN(CCOCCOCCCc1ccc2c(c1)oc(=O)n2C1CCC(=O)NC1=O)C[C@H]1CC[C@H](n2cc(NC(=O)c3coc(-c4ccnc(NCC5CC5)c4)n3)c(C(F)F)n2)CC1 (some centres unmarked) [I-43]	10 to 100	100 to 500	> 1000	100 to 500	–	100 to 500	–	50 to 100
O=C1CCC(N2C[C@H](c3ccc(C#CCN4CCO[C@@H](CNC[C@H]5CC[C@H](n6cc(NC(=O)c7coc(-c8ccnc(NCC9CC9)c8)n7)c(C(F)F)n6)CC5)C4)cc3)OC2=O)C(=O)N1 (some centres unmarked) [I-40]	10 to 100	100 to 500	< 50	100 to 500	< 50	< 50	–	–
Cn1c(=O)n(C2CCC(=O)NC2=O)c2ccc(CCCCOCCCCNC[C@H]3CC[C@H](n4cc(NC(=O)c5cnn6ccc(N7CCNCC7)nc56)c(C(F)F)n4)CC3)cc21 (some centres unmarked) [I-42]	10 to 100	< 50	> 1000	> 1000	< 50	100 to 500	–	–
Cn1c(=O)n(C2CCC(=O)NC2=O)c2ccc(CCCN3CCO[C@@H](CNC[C@H]4CC[C@H](n5cc(NC(=O)c6coc(-c7ccnc(NCC8CC8)c7)n6)c(C(F)F)n5)CC4)C3)cc21 (some centres unmarked) [I-16]	< 10	50 to 100	100 to 500	> 1000	< 50	100 to 500	–	–
Cn1c(=O)n(C2CCC(=O)NC2=O)c2cccc(CCCOCCNC[C@H]3CC[C@H](n4cc(NC(=O)c5coc(-c6ccnc(NCC(F)(F)F)c6)n5)c(C(N)=O)n4)CC3)c21 (some centres unmarked) [I-11]	< 10	< 50	> 1000	> 1000	< 50	< 50	–	–
